Measurements published in US10898504B2, “Substituted nucleoside analogues for use as PRMT5 inhibitors” (Janssen Pharmaceutica NV, priority 2016, dated 2021).
Values joined by “and” are separate entries in the source; they are usually repeats but may differ in a detail not shown here. Identical values can stand only once.

Columns and labels:
[1] = molecular target: T1, PRMT5-MEP50 enzyme (Homo sapiens, UniProt O14744); test: In vitro assay (Assay 1): PRMT5-MEP50 high throughput mass spectrometer assay, inhibition of SAH formation; type: biochemical; conditions: individual measurements shown, read-out: pIC50 Assay 1 (converted)
T1 construct: One virus expresses full length human PRMT5 with Flag-tag at N-terminus
Source text: EXPERIMENTAL PROCEDURES IN VITRO ASSAY (ASSAY 1)
PRMT5-MEP50 enzyme was purchased from Charles River (Argenta). The enzyme complex was produced in insect cells (Sf9) infected simultaneously with two baculoviruses. One virus expresses full length human PRMT5 with Flag-tag at N-terminus, the second virus expresses full length MEP50 with His6-TEV cleavage at N-terminus. The protein was affinity purified using anti-Flag (M2) beads eluted with 3×FLAG peptide, followed by His-Select eluted with 0.5M imidazole. Eluted protein was then dialysed against tris-buffered saline (TBS) (pH 8.0) containing 20% glycerol and 3 mM dithiothreitol (DTT).
Full-length untagged human recombinant histone H2A (residues 1-130, Genbank Accession #NM_021052, MW=14.1 kDa) expressed in E. coli was purchased from Reaction Biology Corporation, Cat #HMT-11-146. Reagents used for making reaction buffer or stopping reaction were purchased including Tris base (Sigma Cat #T-1503), NaCl (Sigma Cat #RGF-3270), MgCl2 (Sigma Cat #M0250), DTT (Invitrogen Cat #15508-013) and Formic Acid (Riedel deHaen, Cat #33015)
High Throughput Mass Spectrometer Assay
PRMT5 catalyzes the sequential methylations of the terminal nitrogen atoms on the guanidine groups of arginine residues within proteins using co-substrate S-adenosyl-L-methionine (AdoMet, SAM), forming mono-methyl (MMA), symmetric-dimethyl arginine (sDMA) and S-adenosyl-L-homocysteine (AdoHcy, SAH). The enzyme activity was determined by following the product SAH formation using high throughput mass spectrometry (Agilent Rapidfire 300 System coupled to a Sciex 4000 series QTrapm triple-quad MS/MS). The reaction buffer was 20 mM Tris-HC, pH 8.5, 50 mM NaCl, 5 mM MgCl2 and 1 mM DTT. The reaction activity was stopped using 1% formic acid (final concentration).
The IC50 Studies were performed using eleven point dosing series made for each compound by serially diluted 1:2 in dimethyl sulfoxide (DMSO), with point 12 being a DMSO control. Compounds were first spotted to plates, and followed by addition of 2 μM SAM and 0.6 μM H2A (histone H2A) solution mixture. The same volume of enzyme solution was added to initiate the enzymatic reactions. The final concentrations of the reaction are at 1 μM SAM, 0.3 μM H2A and 10 nM enzyme. The reaction was incubated at 30° C. for 60 minutes (min) and then quenched by addition of formic acid to a final concentration of 1%. The inhibitions of SAH formation in the presence of compounds were calculated as a percentage of the control relative to the uninhibited reaction as a function of inhibitor concentration. The data were fit as follows: Y=Bottom+(Top−Bottom)/(1+10^((log IC50−X)*h))
where IC50 is the inhibitor concentration (same unit as X) at 50% inhibition and h is the Hill slope. Y is percent of inhibition, X is log of compound concentration. Bottom and Top are the plateaus in same units as Y.

[2] = system: A549 cells; test: PD assay (Assay 2): inhibition of nuclear symmetric Arginine dimethylation (SYM10 immunohistochemistry) in A549 cells; type: cell-based; conditions: individual measurements shown; for IC50: Homo sapiens, A549, PD assay in A549 cells, read-out: pIC50 Assay 2 (converted); for pIC50 Assay 2: PD assay in A549 cells
Description: EXPERIMENTAL PROCEDURE PD ASSAY (ASSAY 2)
A549 cells (ATCC, Cat #CCL-185) were cultured in Dulbecco's Modified Eagle's Medium (DMEM) (Sigma, Cat #D5796), supplemented with 10% Fetal Calf Serum (FCS)(HyClone™, Cat #SV30160.03), 100 mM Sodium Pyruvate (Sigma, Cat #S8636), 200 mM L-Glutamine (Sigma, Cat #G7513) and 50 mg/mL Gentamycing (Gibco, Cat #15750-037).
Reagents used for buffers were purchased: Dulbecco's phosphate buffered saline (DPBS) without Ca/Mg (Sigma, Cat #D8537), phosphate buffered saline (PBS) 10× (Roche, Cat #11 666 789 001), Formalin solution 10% (Sigma, HT50-1-128-4L), MeOH 100% (Sigma, Cat #32213-2.5L), Triton X-100 (Acros, Cat #215680010), Bovine Serum Albumin (BSA) (Sigma, Cat #A2153), Alexa fluor 488 goat anti-rabbit antibody (Life Technologies, Cat #A11034), HCS CellMask Deep Red Stain (Life Technologies, Cat #H32721), Hoechst Stain (Life Technologies, Cat #33258), Anti-dimethyl-Arginine, sym (SYM10) antibody (Millipore, 07-412).
Immunohistochemistry Procedure
Cells were plated at 400 cells/40 μL/well in 384 well black plates μclear bottom (Perkin Elmer) and overnight incubated at 37° C., 5% CO2. The IC50 Studies were performed using nine point dosing series ranging from 10 μM to […] for each compound. 80 nL of the respective dilution of the compounds was added using the Labcyte POD 810 (Labcyte) reaching a final DMSO concentration of 0.2% in cell culture. After an incubation period of 48 h at 37° C. and 5% CO2, cells were fixed in 10% formalin solution for 15 min at r.t. and 20 min in ice-cold MeOH, after which they were washed 3× in DPBS. Subsequently, the cells were blocked for 1 h in blocking buffer (PBS+1% BSA and 0.5% Triton X-100) and incubated overnight at 4° C. with the SYM10 antibody diluted 1/2000 in blocking buffer. The cells were washed 3× with washing buffer (PBS+0.1% Triton X-100) and incubated with the Alexa fluor 488 goat anti-rabbit antibody diluted 1/200 in blocking buffer for 1 h at r.t. Subsequently, they were washed 3× with washing buffer and incubated for 30 min at r.t. with PBS containing a 1/5000 dilution of Hoechst Stain and a 1/5000 dilution of the HCS CellMask Deep Red Stain. After a final wash with PBS, the plates were imaged using the 10×W lens of the Opera® system (Perkin Elmer Life Sciences) using following settings (values in nm):
In the above equations, the following variable names are use: […]
In the above equations, the following controls were used for normalization: […]
Low control: minimum level of symmetrically dimethylated Arginines (cells treated with reference compound at 10 μM).
High control: maximum level of symmetrically dimethylated Arginines (DMSO treated cells).
IC50 and pIC50 (−log IC50) values were calculated using the appropriate software.
pIC50 values (Co. No. means compound number; n.d. means not determined).

T1 sequence (O14744 whole entry): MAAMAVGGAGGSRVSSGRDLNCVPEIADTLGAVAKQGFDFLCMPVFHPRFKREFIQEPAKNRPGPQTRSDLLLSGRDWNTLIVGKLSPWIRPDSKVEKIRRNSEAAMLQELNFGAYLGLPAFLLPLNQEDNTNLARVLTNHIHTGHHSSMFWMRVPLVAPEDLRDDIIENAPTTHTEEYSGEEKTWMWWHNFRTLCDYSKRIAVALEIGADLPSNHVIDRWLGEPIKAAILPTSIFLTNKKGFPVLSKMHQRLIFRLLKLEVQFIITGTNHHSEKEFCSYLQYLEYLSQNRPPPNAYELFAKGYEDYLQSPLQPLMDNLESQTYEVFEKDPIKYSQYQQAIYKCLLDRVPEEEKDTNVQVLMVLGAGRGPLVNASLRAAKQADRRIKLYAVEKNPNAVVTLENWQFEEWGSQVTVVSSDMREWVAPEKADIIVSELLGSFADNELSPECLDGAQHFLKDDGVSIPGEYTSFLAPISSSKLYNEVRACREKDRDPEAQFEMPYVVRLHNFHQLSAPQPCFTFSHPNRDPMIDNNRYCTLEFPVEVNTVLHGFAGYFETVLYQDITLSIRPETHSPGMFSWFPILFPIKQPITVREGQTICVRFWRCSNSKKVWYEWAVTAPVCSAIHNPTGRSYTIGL
T1 sequence (Q9BQA1 whole entry partner): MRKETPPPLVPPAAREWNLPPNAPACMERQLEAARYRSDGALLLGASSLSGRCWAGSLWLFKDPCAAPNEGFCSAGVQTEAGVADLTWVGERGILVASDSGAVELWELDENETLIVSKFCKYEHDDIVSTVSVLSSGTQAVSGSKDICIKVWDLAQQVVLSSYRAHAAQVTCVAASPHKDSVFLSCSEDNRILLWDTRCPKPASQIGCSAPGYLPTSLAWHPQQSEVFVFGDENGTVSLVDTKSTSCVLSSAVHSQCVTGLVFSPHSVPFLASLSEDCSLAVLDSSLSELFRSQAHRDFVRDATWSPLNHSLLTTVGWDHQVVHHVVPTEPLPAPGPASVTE

| SMILES | IC50 [1] | IC50 [2] | pIC50 Assay 2 [2] |
| --- | --- | --- | --- |
| CN1CCC2(CC1)CCN(C[C@H]1O[C@@H](n3cnc4c(N)ncnc43)[C@H](O)[C@@H]1O)C2 [Compound 16] | 22400 nM | > 10000 nM |  |
| CN1CC2(CCN2C[C@H]2O[C@@H](n3cnc4c(N)ncnc43)[C@H](O)[C@@H]2O)C1 [Compound 18] | 8510 nM | > 10000 nM |  |
| Nc1ncnc2c1ccn2[C@@H]1O[C@H](CN2CCCC23CCNCC3)[C@@H](O)[C@H]1O [Compound 19] | 43.7 nM and 11.5 nM |  | 6.93 and 7.24 |
| Nc1ncnc2c1c(F)cn2[C@@H]1O[C@H](CN2CCCC23CCNCC3)[C@@H](O)[C@H]1O [Compound 24] | 11.7 nM | ~67.6 nM |  |
| C[C@@]1(O)[C@H](O)[C@@H](CN2CCCC23CCNCC3)O[C@H]1n1cnc2c(N)ncnc21 [Compound 27] | 1350 nM | > 10000 nM |  |
| Cc1nc(N)c2ccn([C@@H]3O[C@H](CN4CCCC45CCNCC5)[C@@H](O)[C@H]3O)c2n1 [Compound 28] | 26.3 nM | 1150 nM |  |
| Nc1ncnc2c1ccn2[C@@H]1O[C@H](CN2CC(F)(F)CC23CCNCC3)[C@@H](O)[C@H]1O [Compound 29] | 10.2 nM and 7.59 nM | ~60.3 nM | ~7.35 |
| Cc1nc(N)c2ccn([C@@H]3O[C@H](CN4CCCC45CCN(C)CC5)[C@@H](O)[C@H]3O)c2n1 [Compound 30] | 200 nM | 1740 nM |  |
| Nc1ncnc2c1ccn2[C@@H]1O[C@H](CN2CCOC3(CNC3)C2)[C@@H](O)[C@H]1O [Compound 31] | 39.8 nM | ~1450 nM |  |
| Nc1ncnc2c1ccn2[C@@H]1O[C@H](CN2CCOC3(CCCNC3)C2)[C@@H](O)[C@H]1O (some centres unmarked) [Compound 32] | 4470 nM | 9120 nM |  |
| Nc1ncnc2c1ccn2[C@@H]1O[C@H](CN2CCCC3(COCCN3)C2)[C@@H](O)[C@H]1O (some centres unmarked) [Compound 37] | 170 nM | 5370 nM |  |
| Nc1ncnc2c1ccn2[C@@H]1O[C@H](CN2CCC3(CNCCC3(F)F)C2)[C@@H](O)[C@H]1O (some centres unmarked) [Compound 38] | 1620 nM | 3890 nM |  |
| Nc1ncnc2c1ccn2[C@@H]1O[C@H](CN2CCCC3(CCNC3)C2)[C@@H](O)[C@H]1O (some centres unmarked) [Compound 40] | 6.31 nM | 407 nM |  |
| Nc1ncnc2c1ccn2[C@@H]1O[C@H](CN2CC(C(F)(F)F)CC23CCNCC3)[C@@H](O)[C@H]1O (some centres unmarked) [Compound 41] | 5750 nM | > 10000 nM |  |
| Nc1ncnc2c1ccn2[C@@H]1O[C@H](CN2CCCC3(CNC3)C2)[C@@H](O)[C@H]1O [Compound 45] | 83.2 nM | ~741 nM |  |
| NCCC1CN(C[C@H]2O[C@@H](n3ccc4c(N)ncnc43)[C@H](O)[C@@H]2O)CCO1 (some centres unmarked) [Compound 47] | 692 nM | > 10000 nM |  |
| NCC1CN(C[C@H]2O[C@@H](n3ccc4c(N)ncnc43)[C@H](O)[C@@H]2O)CCO1 (some centres unmarked) [Compound 48] | 145 nM | ~2570 nM |  |
| NC[C@H]1COCCN1C[C@H]1O[C@@H](n2ccc3c(N)ncnc32)[C@H](O)[C@@H]1O [Compound 49] | 120 nM | ~5130 nM |  |
| NCC1CCC(F)(F)CN1C[C@H]1O[C@@H](n2ccc3c(N)ncnc32)[C@H](O)[C@@H]1O (some centres unmarked) [Compound 50] | 44.7 nM | 1510 nM |  |
| NCC1CCCN(C[C@H]2O[C@@H](n3ccc4c(N)ncnc43)[C@H](O)[C@@H]2O)C1 (some centres unmarked) [Compound 51] | 21.4 nM | 1000 nM |  |
| NCC1CCCCN1C[C@H]1O[C@@H](n2ccc3c(N)ncnc32)[C@H](O)[C@@H]1O (some centres unmarked) [Compound 52] | 10.2 nM | ~1120 nM |  |
| Nc1ncnc2c1ccn2[C@@H]1O[C@H](CN2CCCC(N)C2)[C@@H](O)[C@H]1O (some centres unmarked) [Compound 53] | 28.8 nM | 891 nM |  |

Next, values leading:

| IC50 [1] | IC50 [2] | pIC50 Assay 2 [2] | SMILES |
| --- | --- | --- | --- |
| 1550 nM | > 10000 nM |  | Nc1ncnc2c1ccn2[C@@H]1O[C@H](CN2CCC(N)C2)[C@@H](O)[C@H]1O (some centres unmarked) [Compound 54] |
| 309 nM | 6170 nM |  | NCCC1CCN(C[C@H]2O[C@@H](n3ccc4c(N)ncnc43)[C@H](O)[C@@H]2O)C1 (some centres unmarked) [Compound 55] |
| 186 nM | ~10000 nM |  | NCC1CCN(C[C@H]2O[C@@H](n3ccc4c(N)ncnc43)[C@H](O)[C@@H]2O)C1 (some centres unmarked) [Compound 56] |
| 11.2 nM | 158 nM |  | NCC[C@@H]1CCCN1C[C@H]1O[C@@H](n2ccc3c(N)ncnc32)[C@H](O)[C@@H]1O [Compound 57] |
| 724 nM | ~6920 nM |  | NCC[C@H]1CCCN1C[C@H]1O[C@@H](n2cnc3c(N)ncnc32)[C@H](O)[C@@H]1O [Compound 58] |
| 44.7 nM | 2400 nM |  | NCC[C@@H]1CCCN1C[C@H]1O[C@@H](n2cnc3c(N)ncnc32)[C@H](O)[C@@H]1O [Compound 59] |
| 28.8 nM | 1150 nM |  | NCC1CCCN1C[C@H]1O[C@@H](n2ccc3c(N)ncnc32)[C@H](O)[C@@H]1O (some centres unmarked) [Compound 60] |
| 129 nM | > 10000 nM |  | Nc1nccc2c1ccn2[C@@H]1O[C@H](CN2CCCC23CCNCC3)[C@@H](O)[C@H]1O [Compound 61] |
| 501 nM | > 10000 nM |  | O[C@@H]1[C@H](O)[C@@H](CN2CCCC23CCNCC3)O[C@H]1n1cnc2cncnc21 [Compound 62] |
| 56.2 nM | 955 nM |  | CN1CCC2(CCCN2C[C@H]2O[C@@H](n3ccc4c(N)nc(Cl)nc43)[C@H](O)[C@@H]2O)CC1 [Compound 65] |
| 603 nM | 6760 nM |  | CN1CCC2(CCCN2C[C@H]2O[C@@H](n3ccc4c(N)nccc43)[C@H](O)[C@@H]2O)CC1 [Compound 66] |
| 1860 nM | ~6170 nM |  | O[C@@H]1[C@H](O)[C@@H](CN2CC(F)(F)CC23CCN(C2CC2)CC3)O[C@H]1n1ccc2c(Cl)ncnc21 [Compound 67] |
| 229 nM | ~1950 nM |  | Nc1ncnc2c([C@@H]3O[C@H](CN4CCCC45CCNCC5)[C@@H](O)[C@H]3O)cnn12 [Compound 68] |
